The record followed here is US6399590B2, “Phosphoglycolipid and methods for its use” (Corixa Corporation, priority 1998, dated 2002).

The subject of data set [1] is Adult mongrel dogs, left anterior descending coronary artery (LAD) occlusion/reperfusion. In words: Infarct size in the dog, 60 min LAD occlusion and 3 h reperfusion. It is filed as in vivo. The settings on record: L34 35 μg/kg 24 h before occlusion + aminoguanidine (AG) 30 mg/kg s.c. 60 min before occlusion; mean ± SEM; 30 mg/kg. The method, then: Adult mongrel dogs of either sex, weighing 19.0-30.0 kg were fasted overnight, anaesthetized with intravenous sodium barbital (200 mg/kg) and sodium pentobarbital (15 mg/kg), and ventilated with room air supplemented with 100% oxygen at an end expiratory pressure of 5-7 cm H2O to prevent atelectasis. Arterial blood pH PO2 and PCO2 were monitored at selected intervals by an automatic blood gas system and maintained within a normal physiological range (pH 7.35-7.45, PO2 10.6-16.0 kPa, PCO2 3,3-4.7 kPa) by adjusting the respiratory rate and oxygen flow and by an infusion of 1.5% sodium bicarbonate when necessary. Body temperature was maintained at 38±1° C. by using a heating pad.
A double pressure-transducer-tipped catheter was inserted into the aorta and left ventricle via the left carotid artery for measurements of aortic and left ventricular pressure. Left ventricular dP/dt was determined by electronic differentiation of the left ventricular pressure pulse.
A left thoracotomy was performed at the fifth intercostal space. The lung was retracted, the pericardium incised, and the heart suspended in a cradle. A 10-15 mm segment of the left anterior descending coronary artery (LAD) was dissected from surrounding tissue. […]
Regional myocardial blood flow was measured by the radioactive microsphere technique. […]

In data set [2] the test system is canine model of repetitive transient regional ischemia. In words: Myocardial stunning in dogs, repetitive transient regional ischemia. It is filed as in vivo, dog. The procedure:
The compound of the subject invention provided both an acute and delayed protective effect against cardiac stunning in dogs. Pretreatment of dogs with the compound of the subject invention 10 minutes and 24 hours prior to ischemia produced significant improvement in the recovery of regional segment shortening (%SS) in the ischemic-reperfused myocardium of anesthetized dogs subjected to a multiple ischemia/reperfusion stunning protocol. Dogs were subjected to five 5-minute periods of coronary artery occlusion interspersed with 10 minute periods of reperfusion and finally followed by 2 hours of reperfusion. Regional systolic shortening in the subendocardium of the ischemic area was determined by sonomicrometry by placing a set of piezoelectric crystals in the subendocardium approximately 10-15 mm apart. Regional myocardial blood flow was determined by the radioactive microsphere technique during the first 5 min occlusion period and at the end of 2 h of reperfusion. Hemodynamics and blood gases were also measured at various times throughout the experiment. There was no significant differences between the control and pretreated groups in body weight, left ventricular weight, area at risk weight or the area at risk as a % of the left ventricle. […]

The test system of data set [3] is rabbits (fever response). In words: Three rabbit USP pyrogen test. Also noted: key to Average Temperature Rise: body temperature rise in °F (decreases recorded as zero). It is filed as in vivo. The procedure: The compound of the subject invention was evaluated for pyrogenicity using a standard three rabbit USP pyrogen test (NAMSA, Northwood Ohio) at dose levels between 10 and 1000 μg/kg. Three rabbits were intravenously administered the compound in 40% propylene glycol and 10% ethanol in water at varying doses diluted one to one in D5W prior to dosing. Each animal's body temperature was monitored over the course of 4 h. Pyrogenic doses and borderline pyrogenic doses were defined by established USP definitions. Any temperature decrease was recorded as a rise of zero. An individual rise in temperature of less than 0.5° F. was considered non-pyrogenic.

As for `CCCCCCCCCCCCCCCCCC(=O)O[C@H](CCCCCCCCCCC)CC(=O)N[C@H]1[C@H](OC[C@H]2OC(O)[C@H](NC(=O)C[C@@H](CCCCCCCCCCC)OC(=O)CCCCCCCCCCCCCCC)[C@@H](O)[C@@H]2O)O[C@H](CO)[C@@H](OP(=O)(O)O)[C@@H]1OC(=O)C[C@@H](CCCCCCCCCCC)OC(=O)CCCCCCCCCCCCC` (stereo partly drawn) [L34, 2-Deoxy-6-O-[2-deoxy-4-O-phosphono-3-O-[(R)-3-tetradecanoyloxytetradecanoyl]-2-[(R)-3-octadecanoyloxytetradecanoylamino]-β-D-glucopyranosyl]-2-[(R)-3-hexadecanoyloxytetradecanoylamino]-D-glucopyranose], the “IS/AAR(%) (infarct size / area at risk)” value in data set [1] is reported as 25.2±2.7%. Moreover, the “recovery of regional wall motion (%SS) vs control group” value is reported as “significantly greater recovery of regional wall motion (%SS)” in data set [2] (24 h pretreatment, after 1st and 4th occlusion and all times of final 2 h reperfusion, FIG. 6); “significantly greater recovery of regional wall motion (%SS)” in data set [2] (pretreatment 10 min prior to first occlusion, after 1st, 2nd, 4th occlusion and all times of final 2 h reperfusion, FIG. 5). For the same molecule, the “Average Temperature Rise” value worked out at 0.14 in data set [3] (L34 dose 10 μg/kg i.v.); 0.17 in data set [3] (L34 dose 20 μg/kg i.v.); 0.17 in data set [3] (L34 dose 30 μg/kg i.v.); 0.00 in data set [3] (L34 dose 40 μg/kg i.v.); 0.10 in data set [3] (L34 dose 60 μg/kg i.v.); 0.13 in data set [3] (L34 dose 80 μg/kg i.v.). The “Average Temperature Rise” value in data set [3] (L34 dose 120 μg/kg i.v.) turned out to be 0.23; in data set [3] (L34 dose 160 μg/kg i.v.), 0.17; in data set [3] (L34 dose 240 μg/kg i.v.), 0.00; in data set [3] (L34 dose 360 μg/kg i.v.), 0.30; in data set [3] (L34 dose 480 μg/kg i.v.) it was 0.06; in data set [3] (L34 dose 500 μg/kg i.v.), 0.12. Moreover, the “Average Temperature Rise” value in data set [3] (L34 dose 1000 μg/kg i.v.) came to 0.10. In addition, the pyrogenicity entry in data set [3] (i.v., dose levels between 10 and 1000 μg/kg) is listed as “not pyrogenic at any of the doses tested”.
